# Experimental data taken from patent EP4603105A1, “PHARMACEUTICAL COMPOSITION CONTAINING CYCLIC COMPOUND HAVING SELECTIVE KRAS INHIBITORY EFFECT AGAINST HRAS AND NRAS” (CHUGAI SEIYAKU KABUSHIKI KAISHA, priority 2022, dated 2024).
# Read-outs that look alike come from different tables or passages of the source.
# Columns and labels:
# [1] = target: GDP-bound NRAS wild-type protein (Homo sapiens, UniProt P01111); assay: Binding to NRAS by surface plasmon resonance (SPR), KD and KD ratio to KRAS
# Method in brief: (§1)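 Recombinant RAS proteins bearing a biotinylated Avi tag and loaded with GDP served as the captured ligand, recaptured fresh every cycle. Binding responses were referenced to an uncoated surface and a buffer-only blank cycle. Dissociation constants were obtained by 1:1 model fitting at 30°C.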
# HRAS wild-type protein = HRAS wild-type protein (Homo sapiens, UniProt P01112); assay: Binding to HRAS by surface plasmon resonance (SPR), KD and KD ratio to KRAS
# Method in brief: as §1
# [2] = test system: human lung cancer strain NCI-H441; assay: NCI-H441 cell proliferation inhibitory activity (CellTiter-Glo, 4 days); type: cell-based; settings: read-out: NCl-H441 IC50
# Method in brief: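 Signal came from […] measured per well once the reagent was added. Beforehand, cells were cultured at 37°C and 5% carbon dioxide on a compound series serially diluted in dimethyl sulfoxide.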
# [3] = target: GDP-bound KRAS wild-type protein (Homo sapiens, UniProt P01116); assay: Binding to KRAS by surface plasmon resonance (SPR), dissociation constant KD
# Method in brief: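 Measured at 30°C: SPR with GDP-loaded, E. coli-expressed biotin-Avi RAS captured (~100–300 RU), ascending 75 s compound injections, HBS pH 7.4 with GDP, MgCl2, 4% DMSO. KD from 1:1 fit.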
# [4] = ratio of KD for GDP-bound NRAS wild-type protein to KD for KRAS
# [5] = ratio of KD for HRAS wild-type protein to KD for KRAS
# [6] = ratio of KD with respect to GDP-bound NRAS wild-type protein to KD with respect to KRAS
# [7] = ratio of KD with respect to HRAS wild-type protein to KD with respect to KRAS
# [8] = 50% proliferation inhibitory concentration, four days
# [9] = Single Cycle Kinetics, 1:1 binding model
# Chain of GDP-bound KRAS wild-type protein (P01116 1-188 isoform P01116-2): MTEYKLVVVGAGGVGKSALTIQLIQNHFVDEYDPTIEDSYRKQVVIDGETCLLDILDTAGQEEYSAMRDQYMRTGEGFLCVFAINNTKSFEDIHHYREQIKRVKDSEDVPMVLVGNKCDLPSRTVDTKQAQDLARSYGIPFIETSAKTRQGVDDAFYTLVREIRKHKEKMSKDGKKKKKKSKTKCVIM
# Chain of GDP-bound NRAS wild-type protein (P01111 whole entry): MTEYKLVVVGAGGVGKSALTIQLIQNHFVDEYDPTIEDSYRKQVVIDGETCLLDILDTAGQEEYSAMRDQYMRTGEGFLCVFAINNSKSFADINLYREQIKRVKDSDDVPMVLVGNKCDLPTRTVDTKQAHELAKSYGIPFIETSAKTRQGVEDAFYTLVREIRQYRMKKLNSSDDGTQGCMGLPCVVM
# Chain of HRAS wild-type protein (P01112 whole entry): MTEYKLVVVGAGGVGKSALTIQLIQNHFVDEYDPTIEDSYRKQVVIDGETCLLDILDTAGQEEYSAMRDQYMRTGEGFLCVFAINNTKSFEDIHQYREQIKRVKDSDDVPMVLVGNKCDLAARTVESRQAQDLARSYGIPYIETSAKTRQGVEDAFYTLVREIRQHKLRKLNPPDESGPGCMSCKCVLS
"IC50 ([2]; NCI-H441 cells, 4 days) [nM]",Kd ([3]; Single Cycle Kinetics) [nM],"IC50 [2, 8] [nM]","Kd [3, 9] [nM]",Kd ([3]; 1:1 binding model) [nM],SMILES,"NRAS /KRAS [1, 4]",HRAS /KRAS (HRAS wild-type protein; [5]),"NRAS /KRAS [1, 6]",HRAS /KRAS (HRAS wild-type protein; [7])
7,0.1,–,–,–,CCC[C@H]1C(=O)N[C@@H]([C@@H](C)CC)C(=O)N(C)CC(=O)N(C)[C@H]2C/C=C\CCN(C2=O)[C@@H](Cc2ccc(C)cc2)C(=O)N(C)CC(=O)N[C@@H](CCc2cc(F)c(C(F)(F)F)c(F)c2)C(=O)N2CC3(CC3)C[C@H]2C(=O)N(C)C2(CCC2)C(=O)N(C)[C@@H]([C@@H](C)CC)C(=O)N(C)[C@H](C(=O)N(C)C)CC(=O)N1C [PP3331],A (a compound having 10 or more and less than 20 is denoted as A),A (a compound having 10 or more and less than 20 is denoted as A),–,–
21.2,0.74,–,–,–,CCCN1CC(=O)N(C)[C@H]2C/C=C\CCN(C2=O)[C@@H](Cc2ccc(C(F)F)cc2)C(=O)N(C)CC(=O)N[C@@H](CCc2cc(F)c(C(F)(F)F)c(F)c2)C(=O)N2C[C@H](OC(C)C)C[C@H]2C(=O)N(C)C2(CCC2)C(=O)N(C)[C@@H](C(CC)CC)C(=O)N(C)[C@H](C(=O)N(C)C)CC(=O)N(C)[C@@H](CC(F)F)C(=O)N[C@@H](C2CCCC2)C1=O [PP3497],A (a compound having 10 or more and less than 20 is denoted as A),A (a compound having 10 or more and less than 20 is denoted as A),–,–
3.6,0.086,–,–,–,C#CC[C@H]1C(=O)N[C@@H]([C@@H](C)CC)C(=O)N2CCC[C@H]2C(=O)N(C)[C@H]2C/C=C\CCN(C2=O)[C@@H](Cc2ccc(C(F)(F)F)cc2)C(=O)N(C)CC(=O)N[C@@H](CCc2ccc(C(F)(F)F)c(Cl)c2)C(=O)N2C[C@H](OCC)C[C@H]2C(=O)N(C)C2(CCC2)C(=O)N(C)[C@@H](C2CCCC2)C(=O)N(C)[C@H](C(=O)N(C)C)CC(=O)N1C [PP3254],A (a compound having 10 or more and less than 20 is denoted as A),B (a compound having 3 or more and less than 10 is denoted as B),–,–
6.9,0.21,–,–,–,CCC[C@H]1C(=O)N[C@@H]([C@@H](C)CC)C(=O)N(C2CC2)CC(=O)N(C)[C@H]2C/C=C\CCN(C2=O)[C@@H](Cc2ccc(C(F)(F)F)cc2)C(=O)N(C)CC(=O)N[C@@H](CCc2ccc(C(F)(F)F)c(Cl)c2)C(=O)N2CC[C@H](OC)[C@H]2C(=O)N(C)C2(CCC2)C(=O)N(C)[C@@H](C2CCCC2)C(=O)N(C)[C@H](C(=O)N(C)C)CC(=O)N1C [PP3288],A (a compound having 10 or more and less than 20 is denoted as A),A (a compound having 10 or more and less than 20 is denoted as A),–,–
7.2,0.38,–,–,–,CCC[C@H]1C(=O)N[C@@H]([C@@H](C)CC)C(=O)N(C2CC2)CC(=O)N(C)[C@H]2C/C(F)=C\CCN(C2=O)[C@@H](Cc2ccc(C)cc2)C(=O)N(C)CC(=O)N[C@@H](CCc2cc(F)c(C(F)(F)F)c(F)c2)C(=O)N2C[C@H](OCC)C[C@H]2C(=O)N(C)C2(CCC2)C(=O)N(C)[C@@H](C2CCCC2)C(=O)N(C)[C@H](C(=O)N(C)C)CC(=O)N1C [PP3527],B (a compound having 3 or more and less than 10 is denoted as B),B (a compound having 3 or more and less than 10 is denoted as B),–,–
3.4,0.099,–,–,–,CCC[C@H]1C(=O)N[C@@H]([C@@H](C)CC)C(=O)N(C)CC(=O)N(C)[C@H]2C/C=C\CCN(C2=O)[C@@H](Cc2ccc(C)cc2)C(=O)N(C)CC(=O)N[C@@H](CCc2ccc(C(F)(F)F)c(OC)c2)C(=O)N2CC3(CC3)C[C@H]2C(=O)N(C)C2(CCC2)C(=O)N(C)[C@@H]([C@@H](C)CC)C(=O)N(C)[C@H](C(=O)N(C)C)CC(=O)N1C [PP3294],A (a compound having 10 or more and less than 20 is denoted as A),A (a compound having 10 or more and less than 20 is denoted as A),–,–

# More lines, now with the values behind:
SMILES,"IC50 ([2]; NCI-H441 cells, 4 days) [nM]",Kd ([3]; Single Cycle Kinetics) [nM],"IC50 [2, 8] [nM]","Kd [3, 9] [nM]",Kd ([3]; 1:1 binding model) [nM],"NRAS /KRAS [1, 4]",HRAS /KRAS (HRAS wild-type protein; [5]),"NRAS /KRAS [1, 6]",HRAS /KRAS (HRAS wild-type protein; [7])
CCO[C@@H]1C[C@H]2C(=O)NC3(CC(C)(C)C3)C(=O)N(C)[C@@H](C3CCCC3)C(=O)N(C)[C@H](C(=O)N(C)CC)CC(=O)N(C)[C@@H]([C@@H](C)OC)C(=O)N[C@@H]([C@@H](C)CC)C(=O)N3CCC[C@H]3C(=O)N(C)[C@H]3C/C=C\CCN(C3=O)[C@@H](Cc3ccc(C(F)(F)F)cc3)C(=O)N(C)CC(=O)N[C@@H](CCc3ccc(C(F)(F)F)c(OC)c3)C(=O)N2C1 [PP3170],42.5,0.84,–,–,–,A (a compound having 10 or more and less than 20 is denoted as A),A (a compound having 10 or more and less than 20 is denoted as A),–,–
CCO[C@@H]1C[C@H]2C(=O)NC3(CCC3)C(=O)N(C)[C@@H](C3CCCC3)C(=O)N(C)[C@H](C(=O)N(C)C)CC(=O)N(C)[C@@H](Cc3ccc(Cl)c(Cl)c3)C(=O)N[C@@H]([C@@H](C)CC)C(=O)N(C)CC(=O)N(C)[C@H]3CCCCCN(C3=O)[C@@H](Cc3ccc(C(F)(F)F)cc3)C(=O)N(C)CC(=O)N[C@@H](CCc3cc(F)c(C(F)(F)F)c(F)c3)C(=O)N2C1 [PP1174],–,–,85.2,1,–,–,–,B (a compound having 3 or more and less than 10 is denoted as B),B (a compound having 3 or more and less than 10 is denoted as B)
CCO[C@@H]1C[C@H]2C(=O)NC3(CCC3)C(=O)N(C)[C@@H](C3CCCC3)C(=O)N(C)[C@H](C(=O)N(C)C)CC(=O)N(C)[C@@H](CC3CC3)C(=O)N[C@@H]([C@@H](C)CC)C(=O)N(C)CC(=O)N(C)[C@H]3C/C=C\CCN(C3=O)[C@@H](Cc3ccc(C(F)(F)F)cc3)C(=O)N(C)CC(=O)N[C@@H](CCc3ccc(C(F)(F)F)c(OC)c3)C(=O)N2C1 [PP1247],–,–,6.4,0.046,–,–,–,A (a compound having 10 or more and less than 20 is denoted as A),A (a compound having 10 or more and less than 20 is denoted as A)
CCC(CC)[C@H]1C(=O)N(C)[C@H](C(=O)N(C)C)CC(=O)N(C)[C@@H](COC)C(=O)N[C@@H]([C@@H](C)CC)C(=O)N2CCC[C@H]2C(=O)N(C)[C@H]2C/C=C\CCN(C2=O)[C@@H](Cc2ccc(C(F)F)cc2)C(=O)N(C)CC(=O)N[C@@H](CCc2ccc(Cl)c(Cl)c2)C(=O)N2C[C@H](OC3CCCC3)C[C@H]2C(=O)NC2(CC(C)(C)C2)C(=O)N1C [PP2652],82.7,–,–,–,1.5,AA (a compound having 20 or more is denoted as AA),A (a compound having 10 or more and less than 20 is denoted as A),–,–
CCCOC[C@H]1C(=O)N[C@@H]([C@@H](C)CC)C(=O)N(C)CC(=O)N(C)[C@H]2C/C=C\CCN(C2=O)[C@@H](CC2CCCCC2)C(=O)N(C)CC(=O)N[C@@H](CCc2cc(F)c(C(F)(F)F)c(F)c2)C(=O)N2C[C@H](OCC)C[C@H]2C(=O)NC2(CC(C)(C)C2)C(=O)N(C)[C@@H](C(CC)CC)C(=O)N(C)[C@H](C(=O)N(C)C)CC(=O)N1C [PP2501],180,–,–,–,1.8,AA (a compound having 20 or more is denoted as AA),A (a compound having 10 or more and less than 20 is denoted as A),–,–
CCCOC[C@H]1C(=O)N[C@@H]([C@@H](C)CC)C(=O)N(C)CC(=O)N(C)[C@H]2C/C=C\CCN(C2=O)[C@@H](Cc2ccc(C)cc2)C(=O)N(C)CC(=O)N[C@@H](CCc2cc(F)c(C(F)(F)F)c(F)c2)C(=O)N2C[C@H](OCC)C[C@H]2C(=O)NC2(CCCC2)C(=O)N(C)[C@@H](C2CCCC2)C(=O)N(C)[C@H](C(=O)N2CCCC2)CC(=O)N1C [PP1401],–,–,34.4,0.26,–,–,–,A (a compound having 10 or more and less than 20 is denoted as A),A (a compound having 10 or more and less than 20 is denoted as A)
CCO[C@@H]1C[C@H]2C(=O)NC3(CCC3)C(=O)N(C)[C@@H](C3CCCC3)C(=O)N(C)[C@H](C(=O)N(C)C)CC(=O)N(C)[C@@H](COCC(F)(F)F)C(=O)N[C@@H]([C@@H](C)CC)C(=O)N(C)CC(=O)N(C)[C@H]3C/C=C\CCN(C3=O)[C@@H](Cc3ccc(C(F)(F)F)cc3)C(=O)N(C)CC(=O)N[C@@H](CCc3cc(F)c(C(F)(F)F)c(F)c3)C(=O)N2C1 [PP1267],–,–,10.8,0.046,–,–,–,A (a compound having 10 or more and less than 20 is denoted as A),A (a compound having 10 or more and less than 20 is denoted as A)
CCOC[C@H]1C(=O)N[C@@H]([C@@H](C)CC)C(=O)N(C)CC(=O)N(C)[C@H]2C/C=C\CCN(C2=O)[C@@H](Cc2ccc(C(F)(F)F)cc2)C(=O)N(C)CC(=O)N[C@@H](CCc2cc(F)c(C(F)(F)F)c(F)c2)C(=O)N2C[C@H](OCC)C[C@H]2C(=O)NC2(CC(C)(C)C2)C(=O)N(C)[C@@H](CC2CCC2)C(=O)N(C)[C@H](C(=O)N(C)C)CC(=O)N1C [PP2763],71.9,–,–,–,0.86,A (a compound having 10 or more and less than 20 is denoted as A),A (a compound having 10 or more and less than 20 is denoted as A),–,–
CCO[C@@H]1C[C@H]2C(=O)NC3(CCC3)C(=O)N(C)[C@@H](C3CCCC3)C(=O)N(C)[C@H](C(=O)N(C)C)CC(=O)N(C)[C@@H](CC(C)C)C(=O)N[C@@H]([C@@H](C)CC)C(=O)N(C)CC(=O)N(C)[C@H]3C/C=C\CCN(C3=O)[C@@H](Cc3ccc(F)cc3C)C(=O)N(C)CC(=O)N[C@@H](CCc3ccc(Cl)c(Cl)c3)C(=O)N2C1 [PP1480],–,–,85.8,0.92,–,–,–,A (a compound having 10 or more and less than 20 is denoted as A),B (a compound having 3 or more and less than 10 is denoted as B)
